Measured values from BindingDB's records for doi:10.1021/acs.jmedchem.8b01226 (Recordati, 2019).

Target: Metabotropic glutamate receptor 1 (Rattus norvegicus, UniProt P23385)
Assay: Displacement of […] from rat mGlu1 receptor expressed in CHO-TREx cell membranes after 30 mins by liquid scintillation spectrometric analysis

Chain of Metabotropic glutamate receptor 1 (P23385 whole entry): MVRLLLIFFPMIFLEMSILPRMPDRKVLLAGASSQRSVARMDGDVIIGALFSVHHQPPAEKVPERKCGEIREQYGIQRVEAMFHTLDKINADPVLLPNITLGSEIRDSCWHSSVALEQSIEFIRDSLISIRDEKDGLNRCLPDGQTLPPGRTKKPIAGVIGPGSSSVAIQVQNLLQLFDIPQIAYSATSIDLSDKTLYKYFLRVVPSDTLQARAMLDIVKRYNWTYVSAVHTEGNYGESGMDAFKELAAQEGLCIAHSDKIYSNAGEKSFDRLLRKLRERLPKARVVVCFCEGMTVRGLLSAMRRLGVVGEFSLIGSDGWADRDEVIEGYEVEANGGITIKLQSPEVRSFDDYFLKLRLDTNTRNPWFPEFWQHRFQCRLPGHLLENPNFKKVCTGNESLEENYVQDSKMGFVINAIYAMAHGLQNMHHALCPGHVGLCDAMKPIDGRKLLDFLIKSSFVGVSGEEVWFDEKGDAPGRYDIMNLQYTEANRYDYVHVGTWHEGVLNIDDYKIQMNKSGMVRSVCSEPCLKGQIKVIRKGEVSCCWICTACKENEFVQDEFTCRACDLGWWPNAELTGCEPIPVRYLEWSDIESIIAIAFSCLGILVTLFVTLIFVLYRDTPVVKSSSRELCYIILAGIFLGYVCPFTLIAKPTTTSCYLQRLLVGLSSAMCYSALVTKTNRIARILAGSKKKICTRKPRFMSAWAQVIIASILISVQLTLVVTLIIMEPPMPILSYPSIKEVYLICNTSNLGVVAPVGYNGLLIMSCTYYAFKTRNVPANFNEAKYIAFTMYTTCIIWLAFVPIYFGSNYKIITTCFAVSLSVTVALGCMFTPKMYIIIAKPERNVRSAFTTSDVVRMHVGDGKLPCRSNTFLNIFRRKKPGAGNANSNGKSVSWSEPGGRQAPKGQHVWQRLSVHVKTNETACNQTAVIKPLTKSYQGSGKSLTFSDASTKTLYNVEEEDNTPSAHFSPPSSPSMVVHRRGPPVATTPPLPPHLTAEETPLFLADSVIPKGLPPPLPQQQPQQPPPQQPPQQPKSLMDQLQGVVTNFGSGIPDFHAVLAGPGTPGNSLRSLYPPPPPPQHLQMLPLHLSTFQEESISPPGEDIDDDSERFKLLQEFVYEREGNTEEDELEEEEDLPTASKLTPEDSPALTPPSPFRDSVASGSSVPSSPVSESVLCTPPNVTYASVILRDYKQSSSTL

- Ki: > 10 µM
Compound: Cc1nc(C#Cc2cccnc2)cs1 [3-(2-(2-methylthiazol-4-yl)ethynyl)pyridine]
